EC50 and solubility data for 5 compounds are collected here from patent US20250382344A1, “Soluble GLP1/GIP/NPY2 Receptor Triple Agonists” (Boehringer Ingelheim International GmH, priority 2024, published 2025).

Like-named read-outs stand apart in the source and are kept apart here.

The target in one data set is T1, hGLP1R (Homo sapiens, UniProt P43220).
T1 construct: expressed in transfected cells; host or cells: HEK-293 CRE-luciferase reporter cells
As to the kind of experiment: hGLP1R CreLuc assay in 0.5% and 100% plasma (HEK-293 CRE-luciferase reporter cells). It counts as cell-based. The settings on record: HEK-293 reporter cells. Background: In a reporter assay the amount or activity of a reporter protein is the signal.

For a further data set, the target named is T2, hGIPR (Homo sapiens, UniProt P48546).
T2 construct: expressed in transfected cells; host or cells: CHO CRE-luciferase reporter cells
T2 sequence (P48546 22-466): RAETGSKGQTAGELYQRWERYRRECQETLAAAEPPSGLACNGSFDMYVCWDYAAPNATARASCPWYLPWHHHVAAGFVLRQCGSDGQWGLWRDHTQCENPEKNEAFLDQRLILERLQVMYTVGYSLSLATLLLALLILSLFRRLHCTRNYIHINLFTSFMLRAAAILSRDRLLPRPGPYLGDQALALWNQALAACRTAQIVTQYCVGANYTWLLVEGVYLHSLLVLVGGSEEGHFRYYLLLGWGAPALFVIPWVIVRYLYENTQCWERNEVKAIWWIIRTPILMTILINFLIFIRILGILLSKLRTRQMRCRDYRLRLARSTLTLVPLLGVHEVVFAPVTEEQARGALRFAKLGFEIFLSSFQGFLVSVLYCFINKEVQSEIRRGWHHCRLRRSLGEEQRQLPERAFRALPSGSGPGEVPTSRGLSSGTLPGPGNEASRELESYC
Put plainly: hGIPR CreLuc assay in 0.5% and 100% plasma (CHO CRE-luciferase reporter cells). It counts as cell-based.

The target in a further data set is T3, hNPY2R (Homo sapiens, UniProt P49146).
T3 construct: expressed in transfected cells; host or cells: HEK-293 CRE-luciferase reporter cells
T3 sequence (P49146 1-381): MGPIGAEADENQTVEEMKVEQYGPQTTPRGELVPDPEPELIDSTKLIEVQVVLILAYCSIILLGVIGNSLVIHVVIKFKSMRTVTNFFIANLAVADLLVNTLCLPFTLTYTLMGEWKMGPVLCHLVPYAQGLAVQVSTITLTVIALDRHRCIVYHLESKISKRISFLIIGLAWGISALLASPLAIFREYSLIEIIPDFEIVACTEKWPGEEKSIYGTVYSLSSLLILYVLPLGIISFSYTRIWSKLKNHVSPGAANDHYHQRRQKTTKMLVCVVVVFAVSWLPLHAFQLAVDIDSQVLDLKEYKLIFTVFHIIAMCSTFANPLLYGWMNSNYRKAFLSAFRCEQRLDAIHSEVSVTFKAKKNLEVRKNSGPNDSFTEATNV
Put plainly: hNPY2R CreLuc assay in 0.5% and 100% plasma (HEK-293 CRE-luciferase reporter cells). The settings on record: HEK-293 reporter cells. Type of data set: cell-based.

Data set [1] in a line: Solubility in 0.1 M phosphate buffer at pH 7. The settings on record: 0.1 M phosphate buffer at pH 7, 10 mg/mL final peptide concentration, shaking 2 hours at room temperature, peptides as TFA-salts; measured sample pH 6.5-7.0. It counts as physicochemical.
[2] abbreviates: 0.5% human plasma, read-out: hGLP1R 0.5% hP.
Where [3] appears, read: 0.5% human plasma, read-out: hGIPR 0.5% hP.
Where [4] appears, read: 0.5% human plasma, read-out: hNPY2R 0.5% hP.
The mark [5] stands for this setting: 100% human plasma, read-out: hNPY2R 100% hP.

T1 sequence (P43220 24-463): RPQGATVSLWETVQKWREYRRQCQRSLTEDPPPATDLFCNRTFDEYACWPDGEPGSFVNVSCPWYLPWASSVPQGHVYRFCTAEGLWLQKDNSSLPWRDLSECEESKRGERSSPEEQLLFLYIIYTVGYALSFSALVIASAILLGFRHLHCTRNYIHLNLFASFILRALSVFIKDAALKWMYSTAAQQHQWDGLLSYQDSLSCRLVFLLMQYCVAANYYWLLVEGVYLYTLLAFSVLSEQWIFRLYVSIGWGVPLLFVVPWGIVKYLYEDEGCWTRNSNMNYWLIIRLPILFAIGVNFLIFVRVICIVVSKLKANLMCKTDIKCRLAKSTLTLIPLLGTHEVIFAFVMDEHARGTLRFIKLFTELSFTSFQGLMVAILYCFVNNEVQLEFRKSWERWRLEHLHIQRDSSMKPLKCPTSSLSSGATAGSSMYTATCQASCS

In the case of `CC[C@H](C)[C@H](NC(=O)[C@H](CC(C)C)NC(=O)[C@H](Cc1c[nH]cn1)NC(=O)[C@H](CCCNC(=N)N)NC(=O)[C@@H](NC(=O)[C@H](Cc1ccccc1)NC(=O)[C@H](CCC(=O)O)NC(=O)C(C)(C)NC(=O)[C@H](CCC(N)=O)NC(=O)[C@H](C)NC(=O)[C@H](CCC(N)=O)NC(=O)[C@H](CCCCN)NC(=O)[C@H](CCC(=O)O)NC(=O)[C@H](CC(C)C)NC(=O)C(C)(C)NC(=O)[C@@H](NC(=O)[C@H](CO)NC(=O)[C@H](Cc1ccc(O)cc1)NC(=O)[C@H](CC(=O)O)NC(=O)[C@H](CO)NC(=O)[C@@H](NC(=O)[C@H](Cc1ccccc1)NC(=O)[C@@H](NC(=O)CNC(=O)[C@H](CCC(=O)O)NC(=O)C(C)(C)NC(=O)[C@@H](N)Cc1ccc(O)cc1)[C@@H](C)O)[C@@H](C)O)[C@@H](C)CC)C(C)C)C(=O)N[C@@H](CC(N)=O)C(=O)N[C@@H](CCCCNC(=O)CCCCCNC(=O)CC[C@H](NC(=O)CC[C@H](NC(=O)CC[C@H](NC(=O)CC[C@H](NC(=O)CC[C@H](NC(=O)CCCCCCCCCCCCCCCCC(=O)O)C(=O)O)C(=O)O)C(=O)O)C(=O)O)C(=O)O)C(=O)NC(C)(C)C(=O)N[C@H](C(=O)N[C@@H](CCCNC(=N)N)C(=O)N[C@@H](CCC(N)=O)C(=O)N[C@@H](CCCNC(=N)N)C(=O)N[C@@H](Cc1ccc(O)cc1)C(N)=O)[C@@H](C)O` [Compound 14, Y-Aib-E-G-T-F-T-S-D-Y-S-I-Aib-L-E-K-Q-A-Q-Aib-E-F-V-R-H-L-I-N-K(1,3)-Aib-T-R-Q-R-Y-NH2.C18DA-gGlu-gGlu-gGlu-gGlu-gGlu-AHX(1,2)], the EC50 is 0.3 nM on hGLP1R (setting [2]); 0.9 nM on hGLP1R (100% human plasma, read-out: hGLP1R 100% hP); 0.1 nM at hGIPR (setting [3]); 6.2 nM on hGIPR (100% human plasma, read-out: hGIPR 100% hP); 16.8 nM at hNPY2R (setting [4]); 387 nM on hNPY2R (setting [5]). In data set [1], the solubility at 2 h amounted to 4800 µg/mL.
Consider `CC[C@H](C)[C@H](NC(=O)[C@H](CC(C)C)NC(=O)[C@H](Cc1c[nH]cn1)NC(=O)[C@H](CCCNC(=N)N)NC(=O)[C@@H](NC(=O)[C@H](Cc1ccccc1)NC(=O)[C@H](C)NC(=O)C(C)(C)NC(=O)[C@H](CCC(N)=O)NC(=O)[C@H](C)NC(=O)[C@H](CCC(N)=O)NC(=O)[C@H](CCCCN)NC(=O)[C@H](CCC(=O)O)NC(=O)[C@H](CC(C)C)NC(=O)C(C)(C)NC(=O)[C@@H](NC(=O)[C@H](CO)NC(=O)[C@H](Cc1ccc(O)cc1)NC(=O)[C@H](CC(=O)O)NC(=O)[C@H](CO)NC(=O)[C@@H](NC(=O)[C@H](Cc1ccccc1)NC(=O)[C@@H](NC(=O)CNC(=O)[C@H](CCC(=O)O)NC(=O)C(C)(C)NC(=O)[C@@H](N)Cc1ccc(O)cc1)[C@@H](C)O)[C@@H](C)O)[C@@H](C)CC)C(C)C)C(=O)N[C@@H](CC(N)=O)C(=O)N[C@@H](CCCCNC(=O)COCCOCCNC(=O)CC[C@H](NC(=O)CC[C@H](NC(=O)CC[C@H](NC(=O)CC[C@H](NC(=O)CC[C@H](NC(=O)CC[C@H](NC(=O)CCCCCCCCCCCCCCCCC(=O)O)C(=O)O)C(=O)O)C(=O)O)C(=O)O)C(=O)O)C(=O)O)C(=O)NC(C)(C)C(=O)N[C@H](C(=O)N[C@@H](CCCNC(=N)N)C(=O)N[C@@H](CCC(N)=O)C(=O)N[C@@H](CCCNC(=N)N)C(=O)N[C@@H](Cc1ccc(O)cc1)C(N)=O)[C@@H](C)O` [Compound 47, Y-Aib-E-G-T-F-T-S-D-Y-S-I-Aib-L-E-K-Q-A-Q-Aib-A-F-V-R-H-L-I-N-K(1,3)-Aib-T-R-Q-R-Y-NH2.C18DA-gGlu-gGlu-gGlu-gGlu-gGlu-gGlu-OEG(1,2)], for which the figures for the EC50 on hGLP1R (setting [2]), at hGIPR (setting [3]) and at hNPY2R (setting [4]) were 0.8 nM, 0.3 nM and 19.9 nM, respectively. Further, the solubility at 2 h in data set [1] is 10000 µg/mL.
For the compound `CC[C@H](C)[C@H](NC(=O)[C@H](CC(C)C)NC(=O)[C@H](CCC(N)=O)NC(=O)[C@H](CCCNC(=N)N)NC(=O)[C@@H](NC(=O)[C@H](Cc1ccccc1)NC(=O)[C@H](C)NC(=O)C(C)(C)NC(=O)[C@H](CCC(N)=O)NC(=O)[C@H](C)NC(=O)[C@H](CCC(N)=O)NC(=O)[C@H](CCCCN)NC(=O)[C@H](CCC(=O)O)NC(=O)[C@H](CC(C)C)NC(=O)C(C)(C)NC(=O)[C@@H](NC(=O)[C@H](CO)NC(=O)[C@H](Cc1ccc(O)cc1)NC(=O)[C@H](CC(=O)O)NC(=O)[C@H](CO)NC(=O)[C@@H](NC(=O)[C@H](Cc1ccccc1)NC(=O)[C@@H](NC(=O)CNC(=O)[C@H](CCC(=O)O)NC(=O)C(C)(C)NC(=O)[C@@H](N)Cc1ccc(O)cc1)[C@@H](C)O)[C@@H](C)O)[C@@H](C)CC)C(C)C)C(=O)N[C@@H](CC(N)=O)C(=O)N[C@@H](CCCCNC(=O)CC[C@H](NC(=O)CC[C@H](NC(=O)CC[C@H](NC(=O)CC[C@H](NC(=O)CC[C@H](NC(=O)CCCCCCCCCCCCCCCCC(=O)O)C(=O)O)C(=O)O)C(=O)O)C(=O)O)C(=O)O)C(=O)NC(C)(C)C(=O)N[C@H](C(=O)N[C@@H](CCCNC(=N)N)C(=O)N[C@@H](CCC(N)=O)C(=O)N[C@@H](CCCNC(=N)N)C(=O)N[C@@H](Cc1ccc(O)cc1)C(N)=O)[C@@H](C)O` [Compound 50, Y-Aib-E-G-T-F-T-S-D-Y-S-I-Aib-L-E-K-Q-A-Q-Aib-A-F-V-R-Q-L-I-N-K(1,3)-Aib-T-R-Q-R-Y-NH2.C18DA-gGlu-gGlu-gGlu-gGlu-gGlu(1,2)], the EC50 was 0.7 nM at hGLP1R (setting [2]), 0.7 nM at hGIPR (setting [3]) and 523 nM at hNPY2R (setting [5]). The solubility at 2 h in data set [1] was found to be 4500 µg/mL.
On to `CC[C@H](C)[C@H](NC(=O)[C@H](CC(C)C)NC(=O)[C@H](Cc1c[nH]cn1)NC(=O)[C@H](CCCNC(=N)N)NC(=O)[C@@H](NC(=O)[C@H](Cc1ccccc1)NC(=O)[C@H](CCC(=O)O)NC(=O)C(C)(C)NC(=O)[C@H](CCC(N)=O)NC(=O)[C@H](C)NC(=O)[C@H](CCC(=O)O)NC(=O)[C@H](CCC(=O)O)NC(=O)[C@H](CCC(=O)O)NC(=O)[C@H](CC(C)C)NC(=O)C(C)(C)NC(=O)[C@@H](NC(=O)[C@H](CO)NC(=O)[C@H](Cc1ccc(O)cc1)NC(=O)[C@H](CC(=O)O)NC(=O)[C@H](CO)NC(=O)[C@@H](NC(=O)[C@H](Cc1ccccc1)NC(=O)[C@@H](NC(=O)CNC(=O)[C@H](CCC(=O)O)NC(=O)C(C)(C)NC(=O)[C@@H](N)Cc1ccc(O)cc1)[C@@H](C)O)[C@@H](C)O)[C@@H](C)CC)C(C)C)C(=O)N[C@@H](CC(N)=O)C(=O)N[C@@H](CCCCNC(=O)CC[C@H](NC(=O)CC[C@H](NC(=O)CC[C@H](NC(=O)CC[C@H](NC(=O)CCCCCCCCCCCCCCCCC(=O)O)C(=O)O)C(=O)O)C(=O)O)C(=O)O)C(=O)NC(C)(C)C(=O)N[C@H](C(=O)N[C@@H](CCCNC(=N)N)C(=O)N[C@@H](CCC(N)=O)C(=O)N[C@@H](CCCNC(=N)N)C(=O)N[C@@H](Cc1ccc(O)cc1)C(N)=O)[C@@H](C)O` [Compound 64, Y-Aib-E-G-T-F-T-S-D-Y-S-I-Aib-L-E-E-E-A-Q-Aib-E-F-V-R-H-L-I-N-K(1,3)-Aib-T-R-Q-R-Y-NH2.C18DA-gGlu-gGlu-gGlu-gGlu(1,2)], for which the EC50 at hGLP1R (setting [2]) is 0.5 nM; on hGIPR (setting [3]), 0.5 nM; at hNPY2R (setting [4]) it was 162 nM. Besides, in data set [1], the solubility at 2 h turned out to be 4800 µg/mL.
For `CC[C@H](C)[C@H](NC(=O)[C@H](CC(C)C)NC(=O)[C@H](Cc1c[nH]cn1)NC(=O)[C@H](CCCNC(=N)N)NC(=O)[C@@H](NC(=O)[C@H](Cc1ccccc1)NC(=O)[C@H](C)NC(=O)C(C)(C)NC(=O)[C@H](CCC(N)=O)NC(=O)[C@H](C)NC(=O)[C@H](CCC(N)=O)NC(=O)[C@H](CCC(N)=O)NC(=O)[C@H](CC(=O)O)NC(=O)[C@H](CC(C)C)NC(=O)C(C)(C)NC(=O)[C@@H](NC(=O)[C@H](CO)NC(=O)[C@H](Cc1ccc(O)cc1)NC(=O)[C@H](CC(=O)O)NC(=O)[C@H](CO)NC(=O)[C@@H](NC(=O)[C@H](Cc1ccccc1)NC(=O)[C@@H](NC(=O)CNC(=O)[C@H](CCC(=O)O)NC(=O)C(C)(C)NC(=O)[C@@H](N)Cc1ccc(O)cc1)[C@@H](C)O)[C@@H](C)O)[C@@H](C)CC)C(C)C)C(=O)N[C@@H](CC(N)=O)C(=O)N[C@@H](CCCCNC(=O)[C@@H](N)CCCCNC(=O)CC[C@H](NC(=O)CC[C@H](NC(=O)CC[C@H](NC(=O)CC[C@H](NC(=O)CC[C@H](NC(=O)CCCCCCCCCCCCCCCCC(=O)O)C(=O)O)C(=O)O)C(=O)O)C(=O)O)C(=O)O)C(=O)NC(C)(C)C(=O)N[C@H](C(=O)N[C@@H](CCCNC(=N)N)C(=O)N[C@@H](CCC(N)=O)C(=O)N[C@@H](CCCNC(=N)N)C(=O)N[C@@H](Cc1ccc(O)cc1)C(N)=O)[C@@H](C)O` [Compound 70, Y-Aib-E-G-T-F-T-S-D-Y-S-I-Aib-L-D-Q-Q-A-Q-Aib-A-F-V-R-H-L-I-N-K(1,3)-Aib-T-R-Q-R-Y-NH2.C18DA-gGlu-gGlu-gGlu-gGlu-gGlu-eLys(1,2)], the EC50 at hGLP1R (setting [2]) came out at 0.2 nM; on hGIPR (setting [3]), 0.2 nM; at hNPY2R (setting [5]), 119 nM. The solubility at 2 h in data set [1] was 9100 µg/mL.

For orientation: solubility means how much of the substance goes into solution per volume.
